Drawing on patent publication US20210221785A1, “AMINO-PYRIMIDONYL DERIVATIVES, A PROCESS FOR THEIR PREPARATION AND PHARMACEUTICAL COMPOSITIONS CONTAINING THEM” (LES LABORATOIRES SERVIER, priority 2018, published 2021), this text covers IC50 for 21 compounds.

Test [1] deals with T1, His-His-USP7 (aa208-560, |C315A|) (Homo sapiens, UniProt Q93009, C315A).
T1 construct: His-His-USP7 (aa208-560, |C315A|); His-His (N)
The test can be described thus: Evaluation of the inhibition of USP7 by the Fluorescence Intensity (FLINT) readings. Type of test: biochemical. Particulars: 0.25 nM His-His-USP7, compound incubated 60 minutes at 30° C., 500 nM Ubiquitin-Rhodamine-110 substrate; 50% reduction in kinetic rate. In a few lines: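 0.25 nM His-His-USP7 (aa208–560, C315A) preincubated 60 min at 30 °C with compound in 100 mM Bicine pH 8.0, 0.01% Triton X-100, 1 mM TCEP, 10% DMSO. Reaction started with 500 nM ubiquitin-rhodamine-110 and fluorescence (Ex485/Em535) read every 3 min for 21 min. IC50 derived from kinetic-rate reduction over an 11-point curve, 4-parameter fit.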

The subject of test [2] is Z138 mantle cell lymphoma tumour cell lines. The test can be described thus: In vitro cytotoxicity, MTT assay. Type of test: cell-based. Particulars: Z138 cells exposed to the test compounds for 96 hours, cell viability vs DMSO treated cells. The method in brief: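 Z138 cells exposed to compounds for 96 hours, then MTT added for 4 hours. Viable cells quantified from formazan absorbance at 540 nm.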
A general note: Tetrazolium assays rely on reduction of a dye to a coloured formazan, in cell work by metabolically active cells.

T1 sequence (Q93009 208-560 C315A): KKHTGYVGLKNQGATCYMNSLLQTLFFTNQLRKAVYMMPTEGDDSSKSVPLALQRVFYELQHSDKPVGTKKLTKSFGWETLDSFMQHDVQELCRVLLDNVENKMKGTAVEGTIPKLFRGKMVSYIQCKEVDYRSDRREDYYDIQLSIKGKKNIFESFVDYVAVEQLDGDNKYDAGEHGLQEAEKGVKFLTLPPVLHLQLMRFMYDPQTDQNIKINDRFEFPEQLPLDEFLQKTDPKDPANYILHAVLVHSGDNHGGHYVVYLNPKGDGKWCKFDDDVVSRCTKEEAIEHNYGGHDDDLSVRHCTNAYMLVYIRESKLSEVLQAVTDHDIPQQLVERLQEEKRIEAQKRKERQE

In general, IC50 refers to the concentration at which inhibition is half-maximal. Consider `NC(=O)CCc1ccc(Oc2ncn(CC3(O)CCN(C(=O)[C@@H]4CCC(F)(F)C[C@H]4c4ccccc4)CC3)c(=O)c2N)cc1` [Example 67, 3-(4-{[5-amino-1-({1-[(1R,2R)-4,4-difluoro-2-phenylcyclohexane-1-carbonyl]-4-hydroxypiperidin-4-yl}methyl)-6-oxo-1,6-dihydropyrimidin-4-yl]oxy}phenyl)propanamide], for which the IC50 in test [1] was determined as 75 nM; in test [2] (Homo sapiens, Z-138, 96 h), 0.668 µM.
In the case of `NCCCc1ccc(Oc2ncn(CC3(O)CCN(C(=O)[C@@H]4CCC(F)(F)C[C@H]4c4ccccc4)CC3)c(=O)c2N)cc1` [Example 68, 5-amino-6-[4-(3-aminopropyl)phenoxy]-3-([1-[(1R,2R)-4,4-difluoro-2-phenylcyclohexane-1-carbonyl]-4-hydroxypiperidin-4-yl]methyl)pyrimidin-4(3H)-one], the IC50 in test [1] stood at 39 nM; in test [2] (Homo sapiens, Z-138, 96 h), 0.454 µM.
As to `Nc1c(Oc2ccc(CNCC(F)(F)F)cc2)ncn(CC2(O)CCN(C(=O)[C@@H]3CCC(F)(F)C[C@H]3c3ccccc3)CC2)c1=O` [Example 73, 5-amino-3-({1-[(1R,2R)-4,4-difluoro-2-phenylcyclohexane-1-carbonyl]-4-hydroxypiperidin-4-yl}methyl)-6-(4-[[(2,2,2-trifluoromethyl)amino]methyl]phenoxy)pyrimidin-4(3H)-one], the IC50 was 113 nM in test [1] and 0.564 µM in test [2] (Homo sapiens, Z-138, 96 h).
Consider `CC(C)(C)NCc1ccc(Oc2ncn(CC3(O)CCN(C(=O)[C@@H]4CCC(F)(F)C[C@H]4c4ccccc4)CC3)c(=O)c2N)cc1` [Example 75, 5-amino-6-{4-[(tert-butylamino)methyl]phenoxy}-3-({1-[(1R,2R)-4,4-difluoro-2-phenylcyclohexane-1-carbonyl]-4-hydroxypiperidin-4-yl}methyl)pyrimidin-4(3H)-one], for which the IC50 in test [1] came to 10 nM; in test [2] (Homo sapiens, Z-138, 96 h), 0.184 µM.
On the same counts, the results for `Nc1c(Oc2ccc(CNCc3ccccc3)cc2)ncn(CC2(O)CCN(C(=O)[C@@H]3CCC(F)(F)C[C@H]3c3ccccc3)CC2)c1=O` [Example 76, 5-amino-6-{4-[(benzylamino)methyl]phenoxy}-3-({1-[(1R,2R)-4,4-difluoro-2-phenylcyclohexane-1-carbonyl]-4-hydroxypiperidin-4-yl}methyl)pyrimidin-4(3H)-one] are 15 nM and 0.4 µM.
Consider `Nc1c(Oc2ccc(CNC3CC3)cc2)ncn(CC2(O)CCN(C(=O)[C@@H]3CCC(F)(F)C[C@H]3c3ccccc3)CC2)c1=O` [Example 77], for which the IC50 in test [1] is 25 nM; in test [2] (Homo sapiens, Z-138, 96 h), 0.156 µM.
On the same counts, the results for `Nc1c(Oc2ccc(F)cc2)ncn(C[C@@]2(O)CCN(C(=O)[C@@H]3CCC(F)(F)C[C@H]3c3ccccc3)CC2(F)F)c1=O` [Example 78, 5-amino-3-({(4S)-1-[(1R,2R)-4,4-difluoro-2-phenylcyclohexane-1-carbonyl]-3,3-difluoro-4-hydroxypiperidin-4-yl}methyl)-6-(4-fluorophenoxy)pyrimidin-4(3H)-one] are 57.5 nM and 0.115 µM.
With `Nc1c(Oc2ccccc2)ncn(CC2(O)CCN(C(=O)[C@@H]3CC(F)(F)CC[C@H]3c3ccccc3)CC2)c1=O` [Example 82, 5-amino-3-({1-[(1R,2R)-5,5-difluoro-2-phenylcyclohexane-1-carbonyl]-4-hydroxypiperidin-4-yl}methyl)-6-phenoxypyrimidin-4(3H)-one], the IC50 in test [1] worked out at 90.3 nM; in test [2] (Homo sapiens, Z-138, 96 h), 0.18 µM.
For `Nc1c(Oc2ccccc2)ncn(CC2(O)CCN(C(=O)[C@@H]3CCC(F)(F)C[C@H]3n3cccc3)CC2)c1=O` [Example 83, 5-amino-3-({1-[(1R,2R)-4,4-difluoro-2-(1H-pyrrol-1-yl)cyclohexane-1-carbonyl]-4-hydroxypiperidin-4-yl}methyl)-6-phenoxypyrimidin-4(3H)-one], the IC50 was found to be 220 nM in test [1] and 0.327 µM in test [2] (Homo sapiens, Z-138, 96 h).
For the compound `Nc1c(Oc2ccc(F)cc2)ncn(CC2(O)CCN(C(=O)[C@@H]3CCC(F)(F)C[C@H]3c3ccsc3)CC2)c1=O` [Example 89, 5-amino-3-({1-[(1R,2R)-4,4-difluoro-2-(thiophen-3-yl)cyclohexane-1-carbonyl]-4-hydroxypiperidin-4-yl}methyl)-6-(4-fluorophenoxy)pyrimidin-4(3H)-one], the IC50 was determined as 92 nM in test [1] and 0.055 µM in test [2] (Homo sapiens, Z-138, 96 h).
As to `NCc1ccc(Oc2ncn(C[C@@]3(O)CCN(C(=O)[C@@H]4CCC(F)(F)C[C@H]4c4ccccc4)CC3(F)F)c(=O)c2N)cc1` [Example 90, 5-amino-6-[4-(aminomethyl)phenoxy]-3-({(4S)-1-[(1R,2R)-4,4-difluoro-2-phenylcyclohexane-1-carbonyl]-3,3-difluoro-4-hydroxypiperidin-4-yl}methyl)pyrimidin-4(3H)-one], the IC50 in test [1] was found to be 3.9 nM; in test [2] (Homo sapiens, Z-138, 96 h), 0.16 µM.
In the case of `Nc1c(Oc2cccc(O)c2)ncn(C[C@@]2(O)CCN(C(=O)[C@@H]3CCC(F)(F)C[C@H]3c3ccccc3)CC2(F)F)c1=O` [Example 104, 5-amino-3-({(4S)-1-[(1R,2R)-4,4-difluoro-2-phenylcyclohexane-1-carbonyl]-3,3-difluoro-4-hydroxypiperidin-4-yl}methyl)-6-(3-hydroxyphenoxy)pyrimidin-4(3H)-one], the IC50 is 41 nM in test [1] and 0.014 µM in test [2] (Homo sapiens, Z-138, 96 h).
As to `CN(C)Cc1ccc(Oc2ncn(CC3(O)CCN(C(=O)[C@@H]4CCC(F)(F)C[C@H]4c4ccccc4)CC3)c(=O)c2N)cc1` [Example 108, 5-amino-3-({1-[(1R,2R)-4,4-difluoro-2-phenylcyclohexane-1-carbonyl]-4-hydroxypiperidin-4-yl}methyl)-6-{4-[(dimethylamino)methyl]phenoxy}pyrimidin-4(3H)-one], the IC50 in test [1] is 63.9 nM; in test [2] (Homo sapiens, Z-138, 96 h) it was 0.654 µM.
As for `Nc1c(Oc2ccc(F)c(O)c2)ncn(C[C@@]2(O)CCN(C(=O)[C@@H]3CCC(F)(F)C[C@H]3c3ccccc3)CC2(F)F)c1=O` [Example 109, 5-amino-3-({(4S)-1-[(1R,2R)-4,4-fluoro-2-phenylcyclohexane-1-carbonyl]-3,3-difluoro-4-hydroxypiperidin-4-yl}methyl)-6-(4-fluoro-3-hydroxyphenoxy)pyrimidin-4(3H)-one], the IC50 in test [1] was determined as 40.3 nM; in test [2], 0.0155 µM.
Turning to `Nc1c(Oc2ccc(Cl)c(O)c2)ncn(CC2(O)CCN(C(=O)[C@@H]3CCC(F)(F)C[C@H]3c3ccccc3)CC2)c1=O` [Example 110, 5-amino-6-(4-chloro-3-hydroxyphenoxy)-3({1-[(1R,2R)-4,4-difluoro-2-phenylcyclohexane-1-carbonyl]-4-hydroxypiperidin-4-yl}methyl)pyrimidin-4(3H)-one], the IC50 turned out to be 28 nM in test [1] and 0.0254 µM in test [2] (Homo sapiens, Z-138, 96 h).
On the same counts, the results for `Cc1ccc(Oc2ncn(CC3(O)CCN(C(=O)[C@@H]4CCC(F)(F)C[C@H]4c4ccccc4)CC3)c(=O)c2N)cc1O` [Example 111, 5-amino-3-({1-[(1R,2R)-4,4-difluoro-2-phenylcyclohexane-1-carbonyl]-4-hydroxypiperidin-4-yl}methyl)-6-(3-hydroxy-4-methylphenoxy)pyrimidin-4(3H)-one] are 22.1 nM and 0.0588 µM.
`Nc1c(Oc2cccc(C3CNCCO3)c2)ncn(CC2(O)CCN(C(=O)[C@@H]3CCC(F)(F)C[C@H]3c3ccccc3)CC2)c1=O` (stereo partly drawn) [Example 115, 5-amino-3-([1-[(1R,2R)-4,4-difluoro-2-phenylcyclohexane-1-carbonyl]-4-hydroxypiperidin-4-yl]methyl)-6-[3-(morpholin-2-yl)phenoxy]pyrimidin-4(3H)-one]: the IC50 in test [1] came to 37.2 nM; in test [2] (Homo sapiens, Z-138, 96 h), 0.85 µM.
`N#CCc1ccc(Oc2ncn(CC3(O)CCN(C(=O)[C@@H]4CCC(F)(F)C[C@H]4c4ccccc4)CC3)c(=O)c2N)cc1` [Example 117, (4-{[5-amino-1-({1-[(1R,2R)-4,4-difluoro-2-phenylcyclohexane-1-carbonyl]-4-hydroxypiperidin-4-yl}methyl)-6-oxo-1,6-dihydropyrimidin-4-yl]oxy}phenyl)acetonitrile]: the IC50 in test [1] was found to be 82.2 nM; in test [2] (Homo sapiens, Z-138, 96 h), 0.617 µM.
In the case of `Nc1c(Oc2ccc(F)c(CO)c2)ncn(CC2(O)CCN(C(=O)[C@@H]3CCC(F)(F)C[C@H]3c3ccccc3)CC2)c1=O` [Example 118, 5-amino-3-({1-[(1R,2R)-4,4-difluoro-2-phenylcyclohexane-1-carbonyl]-4-hydroxypiperidin-4-yl}methyl)-6-[4-fluoro-3-(hydroxymethyl)phenoxy]pyrimidin-4(3H)-one], the IC50 in test [1] was 33.1 nM; in test [2] (Homo sapiens, Z-138, 96 h), 0.0413 µM.
On to `Nc1cc(Oc2ncn(CC3(O)CCN(C(=O)[C@@H]4CCC(F)(F)C[C@H]4c4ccccc4)CC3)c(=O)c2N)ccc1F` [Example 119, 5-amino-6-(3-amino-4-fluorophenoxy)-3-({1-[(1R,2R)-4,4-difluoro-2-phenylcyclohexane-1-carbonyl]-4-hydroxypiperidin-4-yl}methyl)pyrimidin-4(3H)-one], for which the half-maximal inhibitory concentration (IC50) stood at 38 nM in test [1] and 0.0613 µM in test [2] (Homo sapiens, Z-138, 96 h).
Turning to `CC(C)c1ccc(Oc2ncn(CC3(O)CCN(C(=O)[C@@H]4CCC(F)(F)C[C@H]4c4ccccc4)CC3)c(=O)c2N)cc1O` [Example 120, 5-amino-3-({1-[(1R,2R)-4,4-difluoro-2-phenylcyclohexane-1-carbonyl]-4-hydroxypiperidin-4-yl}methyl)-6-[3-hydroxy-4-(propan-2-yl)phenoxy]pyrimidin-4(3H)-one], the IC50 is 16.3 nM in test [1] and 0.103 µM in test [2] (Homo sapiens, Z-138, 96 h).
